{"source": "patent US20240315989A1", "about": "(priority 2021, published 2024)", "key": {"σ1 site [1]": {"molecular_target": "T1, σ1 site (Homo sapiens, UniProt Q99720)", "T1 sequence (Q99720 whole entry)": "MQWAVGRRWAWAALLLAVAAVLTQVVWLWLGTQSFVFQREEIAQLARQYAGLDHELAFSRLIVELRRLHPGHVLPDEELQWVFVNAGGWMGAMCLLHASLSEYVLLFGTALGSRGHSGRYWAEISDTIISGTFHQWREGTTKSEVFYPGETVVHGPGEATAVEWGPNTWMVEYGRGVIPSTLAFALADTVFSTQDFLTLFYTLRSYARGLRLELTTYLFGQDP", "settings": "read-out: Affinity for σ1 Site (Ki or KD values); cited from earlier work"}, "σ1 site [2]": {"molecular_target": "T1, σ1 site", "settings": "cited from earlier work"}, "SARS-CoV-2 [3]": {"test_system": "SARS-CoV-2", "settings": "A549-ACE2; cited from earlier work"}, "severe COVID-19": {"test_system": "severe COVID-19", "assay": "AP-HP observational multicenter study: FIASMA medication use and intubation or death in severe COVID-19", "type": "in vivo, human", "settings": "for Number of events/Number of patients N/N: each FIASMA class and molecule at baseline, severe COVID-19 (N = 2,846); for Number of events/Number of patients (%): each FIASMA class and molecule; for Univariate Cox regression in 1:2 ratio matched analytic samples HR: vs matched control groups", "procedure": "COVID-19 was ascertained by a positive reverse-transcriptase-polymerase-chain-reaction (RT-PCR) test on nasopharyngeal or oropharyngeal swab specimens. Severe COVID-19 was defined as having at least one of the following criteria at hospital admission: respiratory rate >24 breaths/min or <12 breaths/min, resting peripheral capillary oxygen saturation in ambient air <90%, temperature >40° C., systolic blood pressure <100 mm Hg, or high lactate levels >2 mmol/L.^22\nAP-HP Health Data Warehouse (‘Entrepôt de Données de Santé (EDS)’) contains all available clinical data on all inpatient visits for COVID-19 to 36 Greater Paris university hospitals. The data included patient demographic characteristics, vital signs, laboratory tests, and RT-PCR test results, medication administration data during the hospitalization for COVID-19, current diagnoses, discharge disposition, ventilator use data, and death certificates.\nWe obtained the following data for each patient at the time of the hospitalization: sex; age, which was categorized into four classes based on the OpenSAFELY study results^23 (i.e., 18-50, 51-70, 71-80, and 81+); hospital, which was categorized into four classes following the administrative clustering of AP-HP hospitals in Paris and its suburbs based on their geographical location (i.e., AP-HP Centre—Paris University, Henri Mondor University Hospitals and at home hospitalization; AP-HP Nord and Hôpitaux Universitaires Paris Seine-Saint-Denis; AP-HP Paris Saclay University; and AP-HP Sorbonne University); obesity, which was defined as having a body mass index higher than 30 kg/m^2 or an International Statistical Classification of Diseases and Related Health Problems (ICD-10) diagnosis code for obesity (E66.0, E66.1, E66.2, E66.8, and E66.9); self-reported current smoking status; and any medication prescribed according to compassionate use or as part of a clinical trial (e.g., hydroxychloroquine, azithromycin, remdesivir, tocilizumab, sarilumab, or dexamethasone). To take into account possible confounding by indication bias for FIASMA medications, we recorded whether patients had any current diagnosis, based on ICD-10 diagnosis codes recorded during the visit, of neoplasms and diseases of the blood (C00-D89); mental disorders (F01-F99); diseases of the nervous system (G00-G99); cardiovascular disorders (I00-I99); respiratory disorders (J00-J99); digestive disorders (K00-K95); dermatological disorders (L00-L99); diseases of the musculoskeletal system (M00-M99); diseases of the genitourinary system (N00-N99); endocrine disorders (E00-E89); and eye-ear-nose-throat disorders (H00-H95).\nFIASMA medication use was defined as receiving at least one FIASMA medication within the first 24 hours of hospital admission. To minimize potential confounding effects of late prescription of FIASMA medications, patients who initiated an FIASMA medication more than 24 hours after hospital admission were excluded from the analyses. Patients who received at study baseline an antipsychotic or a benzodiazepine while being hospitalized in an intensive care unit, possibly as an aid to oral intubation, were also excluded.\nStudy baseline was defined as the date of hospital admission for COVID-19. The primary end point was the occurrence of intubation and/or death. For patients who died after intubation, the timing of the primary end point was defined as the time of intubation.\nWe calculated frequencies of all baseline characteristics described above in patients receiving or not receiving an FIASMA medication and compared them using standardized mean differences (SMD). SMD are useful to evaluate between-group differences in baseline characteristic variables independently of their unit of measurement (i.e., for both continuous and categorical variables^26-28). We considered SMD greater than 0.1 as reflecting significant differences, a threshold recommended for declaring imbalance.^27"}, "pp-VSV-SARS-CoV-2 spike": {"test_system": "pp-VSV-SARS-CoV-2 spike", "settings": "cited from earlier work"}, "SARS-CoV-2 infection": {"test_system": "SARS-CoV-2 infection", "assay": "Retrospective cohort (BJC Healthcare): antidepressant exposure and ED or hospital encounter within 30 days", "type": "in vivo, human", "settings": "for ED or hospital encounter within 30 days, %: share of exposed outpatients with an encounter after a positive SARS-CoV-2 test; for Unadjusted Odds Ratio, ED or hospital encounter within 30 days / Adjusted Odds Ratio, ED or hospital encounter within 30 days: vs No Antidepressant (Ref); for Unadjusted Odds Ratio, ED or hospital encounter within 30 days: logistic regression; for Adjusted Odds Ratio, ED or hospital encounter within 30 days: multivariable logistic regression, complete cases"}, "SARS-CoV-2 [4]": {"test_system": "SARS-CoV-2", "settings": "cited from earlier work"}, "COVID-19": {"test_system": "COVID-19", "settings": "p<0.05; cited from earlier work"}, "SARS-CoV-2 [5]": {"test_system": "SARS-CoV-2", "settings": "cited from earlier work", "remark": "listed apart in the source"}, "[6]": {"settings": "one-compartment model; cited from earlier work"}, "sigma-1 receptors": {"molecular_target": "sigma-1 receptors (Rattus norvegicus, UniProt Q9R0C9)", "sequence (Q9R0C9 whole entry)": "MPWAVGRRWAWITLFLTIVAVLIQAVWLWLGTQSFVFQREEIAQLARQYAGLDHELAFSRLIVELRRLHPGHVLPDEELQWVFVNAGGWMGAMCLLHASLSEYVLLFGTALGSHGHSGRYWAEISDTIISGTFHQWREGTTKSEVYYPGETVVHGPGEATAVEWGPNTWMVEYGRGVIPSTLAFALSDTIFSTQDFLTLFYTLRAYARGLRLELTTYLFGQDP", "settings": "cited from earlier work"}, "[7]": {"settings": "vs no FIASMA medication, Table 33"}, "[8]": {"settings": "paracetamol group matched to FIASMA respiratory system medication, Table 34"}}, "note": "Like-named read-outs stand apart in the source and are kept apart here."}
{"molecule": "COc1ccc2c(c1)[C@]13CCCC[C@@H]1[C@H](C2)N(C)CC3", "note": "[Dextromethorphan]", "values": [{"measurement": "Ki", "setting": "σ1 site [1]", "value": "< 500", "unit": "nM"}, {"measurement": "Function on σ1 Site", "setting": "σ1 site [2]", "value": "Agonist"}, {"measurement": "SARS-CoV-2 viral replication", "setting": "SARS-CoV-2 [3]", "value": "increase viral replication"}]}
{"molecule": "OCCOCCN1CCN(C(c2ccccc2)c2ccc(Cl)cc2)CC1", "note": "(stereo not drawn) [Hydroxyzine]", "values": [{"measurement": "Number of events/Number of patients N/N", "setting": "severe COVID-19; Table 33", "value": "11/31"}]}
{"molecule": "CN(C)C(=O)C(CCN1CCC(O)(c2ccc(Cl)cc2)CC1)(c1ccccc1)c1ccccc1", "note": "[Loperamide]", "values": [{"measurement": "Number of events/Number of patients N/N", "setting": "severe COVID-19; Table 33", "value": "2/9"}, {"measurement": "Number of events/Number of patients (%)", "setting": "severe COVID-19; Table 33", "value": "(22.2) %"}, {"measurement": "Univariate Cox regression in 1:2 ratio matched analytic samples HR", "setting": "severe COVID-19; Table 33", "value": 0.24}, {"measurement": "Analysis weighted by inverse-probability-weighting weights HR", "setting": "severe COVID-19; [7]", "value": 0.15}, {"measurement": "Crude Cox regression analysis HR", "setting": "severe COVID-19; [7]", "value": 0.39}, {"measurement": "Multivariable Cox regression analysis HR", "setting": "severe COVID-19; [7]", "value": 0.25}]}
{"molecule": "CC(=O)Nc1ccc(O)cc1", "note": "[Paracetamol]", "values": [{"measurement": "Number of events/Number of patients in the matched groups (%)", "setting": "severe COVID-19; [8]", "value": "(21.4) %"}, {"measurement": "Number of events/Number of patients in the matched groups N/N", "setting": "severe COVID-19; [8]", "value": "3/14"}, {"measurement": "Number of events/Number of patients in the matched groups (%)", "setting": "severe COVID-19; paracetamol group matched to other FIASMA cardiovascular system medications, Table 34", "value": "(48.5) %"}]}
{"molecule": "CN(C)CCC=C1c2ccccc2CCc2ccccc21", "note": "[amitriptyline]", "values": [{"measurement": "Infection with pp-VSV-SARS-CoV-2 spike", "setting": "pp-VSV-SARS-CoV-2 spike; freshly isolated nasal epithelial cells of volunteers treated with a low dose", "value": "prevented infection"}, {"measurement": "ED or hospital encounter within 30 days, %", "setting": "SARS-CoV-2 infection", "value": 23.6, "unit": "%"}, {"measurement": "Unadjusted Odds Ratio, ED or hospital encounter within 30 days", "setting": "SARS-CoV-2 infection", "value": 2.90}, {"measurement": "Adjusted Odds Ratio, ED or hospital encounter within 30 days", "setting": "SARS-CoV-2 infection", "value": 1.09}, {"measurement": "Infection with SARS-CoV-2", "setting": "SARS-CoV-2 [4]; human Caco-2 cells", "value": "prevented infection"}]}
{"molecule": "CN(C)CCC[C@@]1(c2ccc(F)cc2)OCc2cc(C#N)ccc21", "note": "[escitalopram]", "values": [{"measurement": "Risk of intubation or death because of COVID-19", "setting": "COVID-19", "value": "lower risk of intubation or death"}, {"measurement": "Inhibiting SARS-CoV-2 replication at a concentration of", "setting": "SARS-CoV-2 [5]", "value": "at a concentration of 0.8 μg/ml"}, {"measurement": "Infection with pp-VSV-SARS-CoV-2 spike", "setting": "pp-VSV-SARS-CoV-2 spike; Vero cells", "value": "prevent infection"}, {"measurement": "ED or hospital encounter within 30 days, %", "setting": "SARS-CoV-2 infection", "value": 16.2, "unit": "%"}]}
{"molecule": "CNCCC(Oc1ccc(C(F)(F)F)cc1)c1ccccc1", "note": "(stereo not drawn) [fluoxetine]", "values": [{"measurement": "Risk of intubation or death because of COVID-19", "setting": "COVID-19", "value": "lower risk of intubation or death"}, {"measurement": "Infection with pp-VSV-SARS-CoV-2 spike", "setting": "pp-VSV-SARS-CoV-2 spike; Vero cells", "value": "prevent infection"}, {"measurement": "ED or hospital encounter within 30 days, %", "setting": "SARS-CoV-2 infection", "value": 16.2, "unit": "%"}, {"measurement": "Entry and propagation of SARS-CoV-2", "setting": "SARS-CoV-2 [4]; Vero-E6 cell lines", "value": "efficiently inhibit entry and propagation"}, {"measurement": "Function on σ1 Site", "setting": "σ1 site [2]", "value": "Agonist"}, {"measurement": "volume of distribution [V/F]", "setting": "[6]", "value": 690, "unit": "L"}]}
{"molecule": "Fc1ccc([C@@H]2CCNC[C@H]2COc2ccc3c(c2)OCO3)cc1", "note": "[paroxetine]", "values": [{"measurement": "ED or hospital encounter within 30 days, %", "setting": "SARS-CoV-2 infection", "value": 15.1, "unit": "%"}, {"measurement": "Unadjusted Odds Ratio, ED or hospital encounter within 30 days", "setting": "SARS-CoV-2 infection", "value": 1.67}, {"measurement": "Adjusted Odds Ratio, ED or hospital encounter within 30 days", "setting": "SARS-CoV-2 infection", "value": 0.64}, {"measurement": "Univariate Cox regression in 1:2 ratio matched analytic samples HR", "setting": "severe COVID-19; Table 33", "value": 0.54}, {"measurement": "Analysis weighted by inverse-probability-weighting weights HR", "setting": "severe COVID-19; [7]", "value": 0.57}, {"measurement": "Crude Cox regression analysis HR", "setting": "severe COVID-19; [7]", "value": 0.69}, {"measurement": "Ki", "setting": "sigma-1 receptors", "value": 2040, "unit": "nM"}]}
{"molecule": "CN[C@H]1CC[C@@H](c2ccc(Cl)c(Cl)c2)c2ccccc21", "note": "[sertraline]", "values": [{"measurement": "ED or hospital encounter within 30 days, %", "setting": "SARS-CoV-2 infection", "value": 17.9, "unit": "%"}, {"measurement": "Number of events/Number of patients N/N", "setting": "severe COVID-19; Table 33", "value": "7/21"}, {"measurement": "Number of events/Number of patients (%)", "setting": "severe COVID-19; Table 33", "value": "(33.3) %"}, {"measurement": "Analysis weighted by inverse-probability-weighting weights adjusted for unbalanced covariates HR", "setting": "severe COVID-19; [7]", "value": 0.82}, {"measurement": "Crude Cox regression analysis HR", "setting": "severe COVID-19; [7]", "value": 0.58}, {"measurement": "Multivariable Cox regression analysis HR", "setting": "severe COVID-19; [7]", "value": 0.67}, {"measurement": "Function on σ1 Site", "setting": "σ1 site [2]", "value": "Agonist"}]}
